The source of these data is patent US11447471B2, “α,β-unsaturated amide compound” (KYOWA KIRIN CO., LTD., priority 2017, dated 2022).

Format in all cases: cell-based
One assay concerns OVTOKO cells. Kind of assay: Cell growth inhibitory effect on human ovarian cancer cell line (cell counting kit 8, 6 days). As to conditions: 144 h, 6 days incubation. In short, it runs like this:
(§1)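 Cells in RPMI1640 with 10% FBS plated at 500 cells/well (OVTOKO 250/well) and cultured one day at 37° C, 5% CO2. Serially diluted compound added (final DMSO 0.1%) for 6 days; viable cells measured at addition and day 6 with CCK-8, absorbance 450 nm. GI50 derived from growth inhibition rate.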

A further assay concerns HuH28 cells. Kind of assay: Cell growth inhibitory effect on human liver cancer cell line (cell counting kit 8, 6 days). As to conditions: 144 h; human liver cancer cell line HuH28, 6 days incubation. From the text:
(§2) NCI-H226 cells, a human mesothelioma cell line (ATCC, CRL-5826), NCI-H322 cells, a human lung cancer cell line (the European Collection of Authenticated Cell Cultures, 95111734), OUTOKO cells, a human ovarian cancer cell line (JCRB cell bank, KRB1048) and […] were each subcultured by keeping the cell density under 80% in a RPMI1640 culture medium with 10% fetal bovine serum (FBS). NCI-H226 cells, NCI-H322 cells and SSP-25 cells were each suspended in the RPMI1640 culture medium mentioned above, and plated to a 96-well flat-bottom plate at 500 cells/well in each well, and incubated at 37° C. in an incubator with 5% CO2 for one day. After the incubation, the evaluation of cell growth inhibitory activity was started. OVTOKO cells were suspended in the RPMI1640 culture medium mentioned above, and plated to a 96-well flat-bottom plate at 250 cells/well in each well, and incubated it at 37° C. in an incubator with 5% CO2 for one day. After the incubation, the evaluation of the cell growth inhibitory activity was started. The next day, a test compound was serially diluted to 5 times of its final concentration in the RPM11640 culture medium mentioned above, and the diluted solution was added to each well. In this case, the final concentration of DMSO in each well was adjusted to 0.1%. After the test compound was added, cells were incubated at 37° C. in an incubator with 5% CO2 for 6 days. At the addition of the test compound and 6 days after the addition, the cell counting measurement was performed using a cell counting kit 8 (made by DOJINDO) according to a protocol equivalent to DOJINDO's recommendation. A reagent contained in the kit was added to each plate and color reaction was performed for 2 or 3 hours at 37° C. in an incubator with 5% CO2. After the reaction, an absorbance at wavelength of 450 nm was measured using a microplate reader. A growth inhibition rate was calculated according to the following formula, from which the concentration of a test compound at which cell growth was inhibited by 50% (GI50 value) was determined.

A further assay has as its system NCI-H226 cells. As to the kind of experiment: Cell growth inhibitory effect on human mesothelioma cell line (cell counting kit 8, 6 days). As to conditions: NCI-H226, 144 h. In short, it runs like this:
as §1
(Tetrazolium assays rely on reduction of a dye to a coloured formazan, in cell work by metabolically active cells.)

The next assay concerns NCI-H322 cells. As to the kind of experiment: Cell growth inhibitory effect on human lung cancer cell line (cell counting kit 8, 6 days). As to conditions: 144 h; human lung cancer cell line NCI-H322, 6 days incubation.
Source text: as §2

Some results are limits rather than exact numbers.

The GI50 is the concentration giving 50% growth inhibition. A higher GI50 goes with less potent growth inhibition. In the case of `C=CC(=O)NCc1ccc(Oc2ccc(C#N)cc2)c2nc(C)oc12` [Compound 278, N-[{4-(4-Cyanophenoxy]-2-methylbenzo[d]oxazol-7-yl}methyl)acrylamide], the GI50 in the assay with OVTOKO cells is ≤ 3000 nM; in the assay with HuH28 cells, < 3000 nM; in the assay with NCI-H226 cells it was 100 to 1000 nM; in the assay with NCI-H322 cells, < 1000 nM.

Regarding `C=CC(=O)NCc1ccc(Oc2cccc(C(F)(F)F)c2)c2nc(C)oc12` [Compound 279, N-([2-Methyl-4-{3-(trifluoromethyl)phenoxy}benzo[d]oxazol-7-yl]methyl) acrylamide], the GI50 in the assay on OVTOKO cells is ≤ 3000 nM; in the assay with HuH28 cells, < 3000 nM; with NCI-H226 cells it was < 100 nM; in the assay with NCI-H322 cells, < 1000 nM.

For `C=CC(=O)NCc1ccc(Oc2ccc(OC)cc2)c2nc(C)oc12` [Compound 280, N-[{4-(4-Methoxyphenoxy]-2-methylbenzo[d]oxazol-7-yl}methyl)acrylamide], the GI50 in the assay with OVTOKO cells is ≤ 3000 nM; in the assay with HuH28 cells, < 3000 nM; in the assay on NCI-H226 cells it was < 100 nM; in the assay with NCI-H322 cells it was < 1000 nM.

Take `C=CC(=O)NCc1ccc(Oc2ccc(Cl)cc2)c2nc(C)oc12` [Compound 281, N-[{4-(4-Chlorophenoxy]-2-methylbenzo[d]oxazol-7-yl}methyl)acrylamide]: the GI50 in the assay with OVTOKO cells is ≤ 3000 nM; in the assay on HuH28 cells, < 3000 nM; in the assay on NCI-H226 cells, < 100 nM; in the assay with NCI-H322 cells, < 1000 nM.

For the molecule `C=CC(=O)NCc1ccc(OCc2ccccc2)c2nc(C)oc12` [Compound 282, N-[{4-(Benzyloxy)-2-methylbenzo[d]oxazol-7-yl}methyl]acrylamide], the concentration for 50% growth inhibition (GI50) in the assay with OVTOKO cells is ≤ 3000 nM; in the assay on HuH28 cells, < 3000 nM; with NCI-H226 cells, < 100 nM; in the assay with NCI-H322 cells it was < 1000 nM.

On to `C=CC(=O)NCc1ccc(Oc2ccc(C(F)(F)F)nc2)c2oc(C)nc12` [Compound 283, N-{(2-Methyl-7-[{6-(trifluoromethyl)pyridin-3-yl}oxy]benzo[d]oxazol-4-yl)methyl}acrylamide], for which the concentration for 50% growth inhibition (GI50) was ≤ 3000 nM in the assay with OVTOKO cells, < 3000 nM with HuH28 cells, < 100 nM with NCI-H226 cells and < 1000 nM with NCI-H322 cells.

In the case of `C=CC(=O)NCc1ccc(Oc2ccc(C(F)(F)F)cn2)c2oc(C)nc12` [Compound 284, N-{(2-Methyl-7-[{5-(trifluoromethyl)pyridin-2-yl}oxy]benzo[d]oxazol-4-yl)methyl}acrylamide], the GI50 was ≤ 3000 nM in the assay with OVTOKO cells, < 3000 nM in the assay on HuH28 cells, < 100 nM with NCI-H226 cells and < 1000 nM with NCI-H322 cells.

Regarding `C=CC(=O)NCc1ccc(Oc2ccc(C(F)(F)F)nc2)c2nc(C)sc12` [Compound 285, N-{(2-Methyl-4-[{6-(trifluoromethyl)pyridin-3-yl}oxy]benzo[d]thiazol-7-yl)methyl}acrylamide], the concentration for 50% growth inhibition (GI50) is ≤ 3000 nM with OVTOKO cells, < 3000 nM in the assay on HuH28 cells, < 100 nM with NCI-H226 cells and < 1000 nM in the assay with NCI-H322 cells.

For `C=CC(=O)NCc1ccc(Oc2ccc(C(F)(F)F)cn2)c2nc(C)sc12` [Compound 286, N-{(2-Methyl-4-[{5-(trifluoromethyl)pyridin-2-yl}oxy]benzo[d]thiazol-7-yl)methyl}acrylamide], the concentration for 50% growth inhibition (GI50) in the assay with OVTOKO cells was ≤ 3000 nM; in the assay with HuH28 cells, < 3000 nM; with NCI-H226 cells, < 100 nM; with NCI-H322 cells it was < 1000 nM.

Consider `C=CC(=O)NCc1ccc(Oc2ccc(C(F)(F)F)nc2)c2sc(C)nc12` [Compound 287, N-{(2-Methyl-7-[{6-(trifluoromethyl)pyridin-3-yl}oxy]benzo[d]thiazol-4-yl)methyl}acrylamide], for which the GI50 in the assay with OVTOKO cells is ≤ 3000 nM; in the assay on HuH28 cells, < 3000 nM; with NCI-H226 cells, < 100 nM; with NCI-H322 cells, < 1000 nM.

Consider `C=CC(=O)NCc1ccc(Oc2ccc(C(F)(F)F)cn2)c2sc(C)nc12` [Compound 288, N-{(2-Methyl-7-[{5-(trifluoromethyl)pyridin-2-yl}oxy]benzo[d]thiazol-4-yl)methyl}acrylamide], for which the GI50 with OVTOKO cells was ≤ 3000 nM; with HuH28 cells, < 3000 nM; with NCI-H226 cells, < 100 nM; in the assay on NCI-H322 cells, < 1000 nM.
